Measurements from patent US20250115595A1, “INHIBITORS OF HYPOXIA-INDUCIBLE FACTORS” (The Johns Hopkins University, priority 2021, published 2025).

Tests used:
[1] = system: HIF-regulated angiogenic genes; assay: mRNA expression in hypoxic HUVECs; format: cell-based, human; conditions: 1 or 10 μM, 4 hours
Description: Vascular endothelial cells also secrete angiogenic mediators that contribute to the progression of diabetic eye disease (Y. Qin et al., Sci Adv 8, eabm1896 (2022)). Exposure of human umbilical vein endothelial cells (HUVECs) to hypoxia induced HIF-1α and HIF-2α protein accumulation, which was inhibited by 32-134D (FIG. 30). […] Of note, ANGPT2 and VE-PTP, two emerging targets for the treatment of diabetic eye disease, are both expressed specifically by vascular cells (G. Fachinger, et al., Oncogene 18, 5948-5953 (1999); P. C. Maisonpierre et al., Science 277, 55-60 (1997)).
Reverse transcription and quantitative real-time PCR: Total RNA was isolated from cultured cells or retinas with PureLink™ RNA Mini Kit (Invitrogen #12183025), and cDNA was prepared with MuLV Reverse Transcriptase (Applied Biosystems). Quantitative real-time PCR was performed with Power SYBR Green PCR Master Mix (Applied Biosystems) and MyiQ Real-Time PCR Detection System (Bio-Rad). Normalization was done using cyclophilin A for mouse tissue and human cell lines.

C57BL/6 mice = assay: Ischemia/reperfusion (I/R) model of vascular permeability; format: in vivo, mouse; conditions: 5 daily IP injections 40 mg/kg
Method: The ability of 32-134D to inhibit vascular permeability in retinal vein occlusion patients was evaluated using the ischemia/reperfusion (I/R) model for vascular permeability in ischemic retinal disease. Transient ischemia was induced in the left eye in 8-to-10-week-old male C57BL/6 mice; the right eye was used as the non-I/R control. Following ischemia, mice were treated with 5 daily IP injections of vehicle control or 32-134D at 40 mg/kg. 24 hours after the fifth IP injection, mice were euthanized, Evans blue perfusion was performed, and retina flat mounts were examined for vascular leakage. […] There was no difference between non-/R (healthy) eyes and I/R eyes treated with 32-134D.
Vascular permeability by Evans blue tracer method: Mice were anesthetized with a mixture of ketamine (50 mg/kg) and xylazine (5 mg/kg) and subjected to Evans blue (Sigma) (50 mg/kg) perfusion by penile vein injection. […] Images were captured by Zeiss fluorescent microscope or confocal microscopy and fluorescence quantified by image J software (NIH). […] Blinded quantification of the number of leaking vessels was performed by manual counting major leakage from capillaries from retinas of each group. Non-capillary artifactual Evans blue or FITC-dextran leakage due to flat mount processing as well as minor leakages were not included in the quantitation. […] For quantification, high magnifications (20×) images were taken. […]

[2] = system: HIF-regulated vasoactive mediators; assay: mRNA expression in hypoxic D120 hiPSC-derived retinal organoids; format: cell-based, human; conditions: 1% O2, 12 hours
Method: To assess the therapeutic potential of 32-134D for diabetic patients, human induced pluripotent stem cell (hiPSC)-derived 3-dimensional (3D) retinal organoids were treated with 32-134D. It has been previously reported that hiPSC-derived 3D retinal organoids cultured under hypoxic conditions (1% O2) behave similar to ischemic human retinal tissue with increased accumulation of both HIF-1α and HIF-2α (J. Zhang et al., J Clin Invest 131 (2021)). By 120 days of differentiation (D120), the inner and outer retinal layers are clearly defined (FIGS. 32A and 32B) and contain the precursors of the major retinal cell types, including outer retina photoreceptors (expressing recoverin), few newly differentiating bipolar cell precursors (lacking expression of recoverin and Pax6), amacrine cells (expressing high levels of Pax6), as well as Müller cells (expressing CRALBP; FIGS. 32C and 32D). […]
Reverse transcription and quantitative real-time PCR: Total RNA was isolated from cultured cells or retinas with PureLink™ RNA Mini Kit (Invitrogen #12183025), and cDNA was prepared with MuLV Reverse Transcriptase (Applied Biosystems). Quantitative real-time PCR was performed with Power SYBR Green PCR Master Mix (Applied Biosystems) and MyiQ Real-Time PCR Detection System (Bio-Rad). […]

Brc1ccc2c(-c3csc(-c4c[nH]c5c(Br)cccc45)n3)c[nH]c2c1 [Compound 32-134D, 4-(6-bromo-1H-indol-3-yl)-2-(7-bromo-1H-indol-3-yl)thiazole]
hypoxia-increased ANGPT2 and VEPTP mRNA expression [1]: inhibited | hypoxia-induced VEGF and ANGPTL4 mRNA expression [1]: effectively inhibited | vascular leakage in I/R eyes (Evans blue) (C57BL/6 mice): significant reduction in vascular leakage | expression of HIF-regulated vasoactive mediators (Vegf, Angpt14 mRNA) [2]: effectively prevented
